Data on five compounds can be found in patent US20100285145A1, “GPR 119 MODULATORS” (PFIZER INC, priority 2009, published 2010).

Values joined by “and” are separate entries in the source; they are usually repeats but may differ in a detail not shown here. Equal values may be shown once.

Experiment [1] deals with T1, human GPR119 (Homo sapiens, UniProt Q8TDV5).
T1 sequence (Q8TDV5 1-335): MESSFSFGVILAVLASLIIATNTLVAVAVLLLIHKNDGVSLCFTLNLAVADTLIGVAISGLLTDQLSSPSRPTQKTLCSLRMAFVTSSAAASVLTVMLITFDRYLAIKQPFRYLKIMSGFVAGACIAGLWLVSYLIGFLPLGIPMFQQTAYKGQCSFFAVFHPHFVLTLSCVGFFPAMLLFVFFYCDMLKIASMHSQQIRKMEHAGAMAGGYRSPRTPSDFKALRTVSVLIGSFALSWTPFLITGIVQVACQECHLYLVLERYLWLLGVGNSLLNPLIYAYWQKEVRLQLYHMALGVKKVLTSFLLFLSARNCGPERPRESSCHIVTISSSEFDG
The experiment in a line: cAMP HTRF functional assay (hGPR119 HEK-CRE beta-lactamase cells). The format is cell-based. The arrangement: host or cells: HEK293-CRE beta-lactamase. The conditions noted are these: for Emax: read-out: Intrinsic Activity (Human cAMP). As to the method:
GPR119 agonist activity was also determined with a cell-based assay utilizing an HTRF (Homogeneous Time-Resolved Fluorescence) cAMP detection kit (cAMP dynamic 2 Assay Kit; Cis Bio cat #62AM4PEC) that measures cAMP levels in the cell. The method is a competitive immunoassay between native cAMP produced by the cells and the cAMP labeled with the dye d2. The tracer binding is visualized by a Mab anti-cAMP labeled with Cryptate. The specific signal (i.e. energy transfer) is inversely proportional to the concentration of cAMP in either standard or sample.
Specifically, hGPR119 HEK-CRE beta-lactamase cells (Invitrogen 2.5×10^7/mL; the same cell line used in the beta-lactamase assay described above) are removed from cryopreservation and diluted in growth medium (Dulbecco's modified Eagle medium high glucose (DMEM; Gibco Cat # 11995-065), 1% charcoal dextran treated fetal bovine serum (CD serum; HyClone Cat # SH30068.03), 1×MEM Nonessential amino acids (Gibco Cat # 15630-080) and 25 mM HEPES pH 7.0 (Gibco Cat # 15630-080)). The cell concentration was adjusted to 1.5×10^5 cells/mL and 30 mLs of this suspension was added to a T-175 flask and incubated at 37 degrees Celsius in a humidified environment in 5% carbon dioxide. After 16 hours (overnight), the cells were removed from the T-175 flask (by rapping the side of the flask), centrifuged at 800×g and then re-suspended in assay medium (1×HBSS+CaCl2+MgCl2 (Gibco Cat # 14025-092) and 25 mM HEPES pH 7.0 (Gibco Cat # 15630-080)). The cell concentration was adjusted to 6.25×10^5 cells/mL with assay medium and 8 μl of this cell suspension (5000 cells) was added to each well of a white Greiner 384-well, low-volume assay plate (VWR cat #82051-458).
Varying concentrations of each compound to be tested were diluted in assay buffer containing 3-isobutyl-1-methylxanthin (IBMX; Sigma cat #15879) and added to the assay plate wells in a volume of 2 microL (final IBMX concentration was 400 microM and final DMSO concentration was 0.58%). Following 30 minutes incubation at room temperature, 5 microL of labeled d2 cAMP and 5 microL of anti-cAMP antibody (both diluted 1:20 in cell lysis buffer; as described in the manufacturers assay protocol) were added to each well of the assay plate. The plates were then incubated at room temperature and after 60 minutes, changes in the HTRF signal were read with an Envision 2104 multilabel plate reader using excitation of 330 nm and emissions of 615 and 665 nm. Raw data were converted to nM cAMP by interpolation from a cAMP standard curve (as described in the manufacturer's assay protocol) and EC50 determinations were made from an agonist-response curves analyzed with a curve fitting program using a 4-parameter logistic dose response equation.
In general terms: TR-FRET usually uses a lanthanide donor and a delayed reading to cut background.

Experiment [2] deals with T1, human GPR119. Description: GPR119 radioligand binding assay ([3H]-Compound A or B, membranes of HEK 293FT cells expressing hGPR119). Also on record: host or cells: HEK293-CRE beta-lactamase. Particulars: calculated from IC50 with Cheng-Prusoff; each line a separate determination. On the procedure: HEK 293FT cells (Invitrogen, Carlsbad, Calif.) were grown in a shake flask in 293Freestyle medium (Invitrogen) supplemented with 50 microg/mL neomycin and 10 mM HEPES (37C, 8% carbon dioxide, shaking). The cells were centrifuged gently (approximately 500×g, 10 minutes) and the pellet resuspended in a mixture of Dulbecco's PBS (minus Mg++/−Ca++) supplemented with 18% fetal bovine serum (Sigma Aldrich) and P1 virus such that the multiplicity of infection (MOI) was 10 and the final cell density was 1.3×10^6/mL (total volume 2.5 liters). The cells were transferred to a 5 liter Wave Bioreactor Wavebag (Wave Technologies, Mass.) and incubated for 4 hours at 27 degrees Celsius (17 rocks/min, 7 degrees platform angle); at the end of the incubation period, an equal volume (2.5 liters) of 293Freestyle medium supplemented with 30 mM sodium butyrate (Sigma Aldrich) was added (final concentration=15 mM), and the cells were grown for 20 hours (37 degrees Celsius, 8% CO2 [0.2 liters/min}, 25 rocks/minute, 7 degrees platform angle). Cells were harvested via centrifugation (3,000×g, 10 minutes), washed once on DPBS (minus Ca++/Mg++), resuspended in 0.25M sucrose, 25 mM HEPES, 0.5 mM EDTA, pH 7.4 and frozen at −80 degrees Celsius.
The frozen cells were thawed on ice and centrifuged at 700×g (1400 rpm) for 10 minutes at 4 degrees Celsius. The cell pellet was resuspended in 20 mL phosphate-buffered saline, and centrifuged at 1400 rpm for 10 minutes. The cell pellet was then resuspended in homogenization buffer (10 mM HEPES (Gibco #15630), pH 7.5, 1 mM EDTA (BioSolutions, #BIO260-15), 1 mM EGTA (Sigma, #E-4378), 0.01 mg/mL benzamidine (Sigma #B 6506), 0.01 mg/mL bacitracin (Sigma #B 0125), 0.005 mg/mL leupeptin (Sigma #L 8511), 0.005 mg/mL aprotinin (Sigma #A 1153)) and incubated on ice for 10 minutes. Cells were then lysed with 15 gentle strokes of a tight-fitting glass Dounce homogenizer. The homogenate was centrifuged at 1000×g (2200 rpm) for 10 minutes at 4 degrees Celsius. The supernatant was transferred into fresh centrifuge tubes on ice. The cell pellet was resuspended in homogenization buffer, and centrifuged again at 1000×g (2200 rpm) for 10 minutes at 4 degrees Celsius after which the supernatant was removed and the pellet resuspended in homogenization buffer. This process was repeated a third time, after which the supernatants were combined, Benzonase (Novagen # 71206) and MgCl2 (Fluka #63020) were added to final concentrations of 1 U/mL and 6 mM, respectively, and incubated on ice for one hour. The solution was then centrifuged at 25,000×g (15000 rpm) for 20 minutes at 4 degrees Celsius, the supernatant was discarded, and the pellet was resuspended in fresh homogenization buffer (minus Benzonase and MgCl2). After repeating the 25,000×g centrifugation step, the final membrane pellet was resuspended in homogenization buffer and frozen at −80 degrees Celsius. The protein concentration was determined using the Pierce BCA protein assay kit (Pierce reagents A #23223 and B #23224).
Test compounds were serially diluted in 100% DMSO (J. T. Baker #922401). 2 microL of each dilution was added to appropriate wells of a 96-well plate (each concentration in triplicate). Unlabeled Compound A (or Compound B), at a final concentration of 10 microM, was used to determine non-specific binding. [^3H]-Compound A (or [^3H]-Compound B) was diluted in binding buffer (50 mM Tris-HCl, pH 7.5, (Sigma #T7443), 10 mM MgCl2 (Fluka 63020), 1 mM EDTA (BioSolutions #BIO260-15), 0.15% bovine serum albumin (Sigma #A7511), 0.01 mg/mL benzamidine (Sigma #B 6506), 0.01 mg/mL bacitracin (Sigma #B 0125), 0.005 mg/mL leupeptin (Sigma #L 8511), 0.005 mg/mL aprotinin (Sigma #A 1153)) to a concentration of 60 nM, and 100 microL added to all wells of 96-well plate (Nalge Nunc # 267245). […]

Experiment [3] concerns the target T1, human GPR119. Description: β-Lactamase reporter functional assay (hGPR119 HEK293-CRE beta-lactamase cells). The arrangement: host or cells: HEK293-CRE beta-lactamase; Emax: dose or concentration left out as unconfirmed. Format: cell-based. On the procedure: The assay for GPR119 agonists utilizes a cell-based (hGPR119 HEK293-CRE beta-lactamase) reporter construct where agonist activation of human GPR119 is coupled to beta-lactamase production via a cyclic AMP response element (CRE). GPR119 activity is then measured utilizing a FRET-enabled beta-lactamase substrate, CCF4-AM (Live Blazer FRET-B/G Loading kit, Invitrogen cat #K1027). Specifically, hGPR119-HEK-CRE-beta-lactamase cells (Invitrogen 2.5×10^7/mL) were removed from liquid nitrogen storage, and diluted in plating medium (Dulbecco's modified Eagle medium high glucose (DMEM; Gibco Cat # 11995-065), 10% heat inactivated fetal bovine serum (HIFBS; Sigma Cat # F4135), 1×MEM Nonessential amino acids (Gibco Cat # 15630-080), 25 mM HEPES pH 7.0 (Gibco Cat # 15630-080), 200 nM potassium clavulanate (Sigma Cat # P3494). The cell concentration was adjusted using cell plating medium and 50 microL of this cell suspension ([…]) was added into each well of a black, clear bottom, poly-d-lysine coated 384-well plate (Greiner Bio-One cat# 781946) and incubated at 37 degrees Celsius in a humidified environment containing 5% carbon dioxide. After 4 hours the plating medium was removed and replaced with 40 microL of assay medium (Assay medium is plating medium without potassium clavulanate and HIFBS). Varying concentrations of each compound to be tested was then added in a volume of 10 microL (final DMSO ≦0.5%) and the cells were incubated for 16 hours at 37 degrees Celsius in a humidified environment containing 5% carbon dioxide. Plates were removed from the incubator and allowed to equilibrate to room temperature for approximately 15 minutes. 10 microL of 6×CCF4/AM working dye solution (prepared according to instructions in the Live Blazer FRET-B/G Loading kit, Invitrogen cat #K1027) was added per well and incubated at room temperature for 2 hours in the dark. Fluorescence was measured on an EnVision fluorimetric plate reader, excitation 405 nm, emission 460 nm/535 nm. EC50 determinations were made from agonist-response curves analyzed with a curve fitting program using a 4-parameter logistic dose-response equation.

The mark [4] stands for this setting: HTRF cAMP, 30 min, 400 microM IBMX, each line a separate determination.
Where [5] appears, read: percent of maximal activity relative to standard GPR119 agonist at 10 micromolar.
The mark [6] stands for this setting: marked **: curve was extrapolated to 100%.

As a reminder, the EC50 is the concentration giving half of the maximal effect. The Ki is a measure of affinity in units of concentration, obtained from inhibition or displacement.

`Cc1c(OC2CCN(C(=O)OC3(C)CC3)CC2F)ncnc1N1CCc2cc(C(N)=O)ccc21` (racemic) [Example 20, 1-Methylcyclopropyl 4-{[6-(5-carbamoyl-2,3-dihydro-1H-indol-1-yl)-5-methylpyrimidin-4-yl]oxy}-3-fluoropiperidine-1-carboxylate (racemic)]: the EC50 in experiment [1] (setting [4]) was 493 nM and 765 nM and 1050 nM. Further, in experiment [1] (setting [5]), the “Intrinsic Activity (Human cAMP)” value is 91.6% and 98%; the Emax came to 81.5%. The inhibition constant (Ki) in experiment [2] was 1710 nM.
With `COc1c(OC2CCN(C(=O)OC(C)C)CC2)ncnc1N1CCc2cc(S(C)(=O)=O)ccc21` [Example 7, Isopropyl 4-({5-methoxy-6-[5-(methylsulfonyl)-2,3-dihydro-1H-indol-1-yl]pyrimidin-4-yl}oxy)piperidine-1-carboxylate], the EC50 in experiment [3] (hGPR119 HEK293-CRE beta-lactamase cells, 16 h incubation, each line a separate determination, read-out: Human B-lactamase Functional EC50) is 96.6 nM. Besides, in experiment [3] (percent of maximal activity relative to standard GPR119 agonist at 10 micromolar, read-out: Intrinsic Activity (Human B-lactamase)), the Emax was 101%. In addition, the Ki in experiment [2] is 285 nM.
Regarding `Cc1c(O[C@H]2[C@@H]3COC[C@H]2CN(C(=O)OC(C)(C)C)C3)ncnc1N1CCc2ncccc21` [Example 21, tert-Butyl (9-anti)-9-{[6-(2,3-dihydro-1H-pyrrolo[3,2-b]pyridin-1-yl)-5-methylpyrimidin-4-yl]oxy}-3-oxa-7-azabicyclo[3.3]nonane-7-carboxylate], the EC50 in experiment [1] (setting [4]) was 107 nM and 87.8 nM. In experiment [1] (setting [5]), the “Intrinsic Activity (Human cAMP)” value is given as 45.2% and the Emax came out at 49.8%. Further, the Ki in experiment [2] was 26 nM and 25.6 nM.
As for `Cc1c(O[C@@H]2CCN(C(=O)OC(C)(C)C)C[C@@H]2F)ncnc1N1CCc2nnccc21` [Example 30, tert-Butyl (3S,4R)-4-{[6-(6,7-dihydro-5H-pyrrolo[3,2-c]pyridazin-5-yl)-5-methylpyrimidin-4-yl]oxy}-3-fluoropiperidine-1-carboxylate], the EC50 in experiment [1] (setting [4]) is 549 nM and 520 nM. Further, in experiment [1] (setting [5]), the “Intrinsic Activity (Human cAMP)” value is given as 28% and the Emax worked out at 28%. In experiment [2], the Ki is over 8150 nM.
`Cc1c(O[C@@H]2CCN(C(=O)OC3(C)CC3)C[C@@H]2F)ncnc1N1CCc2nnccc21` [Example 31, 1-Methylcyclopropyl (3S,4R)-4-{[6-(6,7-dihydro-5H-pyrrolo[3,2-c]pyridazin-5-yl)-5-methylpyrimidin-4-yl]oxy}-3-fluoropiperidine-1-carboxylate]: in experiment [1] (curve was extrapolated to 100% to calculate an EC50), the EC50 is 4820 nM and 5890 nM and 6100 nM. Further, in experiment [1] (setting [6]), the “Intrinsic Activity (Human cAMP)” value is reported as 100** % and the Emax was 100%. In addition, the Ki in experiment [2] was 618 nM.
